Assay results from patent US20100075907A1, “NEUROMEDIN U RECEPTOR AGONISTS AND USES THEREOF” (priority 2006, published 2010).
Starred links: 1 amine or outer side, 2 acyl side, 3 side chain; linkers in the order of their positions; H or OH if unused. Non-standard residues stand in square brackets, D forms with d. Residues, ends and D or L forms follow the SMILES beside them. No end group written: not given here. *: point of attachment. X1 = CC(C)CCC[C@@H](C)[C@H]1CC[C@H]2[C@@H]3CC=C4C[C@@H](OC(=O)C*)CC[C@]4(C)[C@H]3CC[C@]12C; X2 = CCN1C(=O)CC(SC[C@H](NC(C)=O)C(=O)NCCCOCCOCCOCCCN*)C1=O; Succinimide(1-Et,3-yl) = CCN1C(=O)CC(*)C1=O; Suc = O=C(CCC(=O)[*:2])[*:1]

Key:
Format in all cases: cell-based
Details in all cases: for EC50: FLIPR
hNMUR1 = molecular target: T1, hNMUR1 (Homo sapiens, UniProt Q9HB89); assay: FLIPR calcium mobilization assay, human NMUR1; set-up: expressed in transfected cells; host or cells: FLP-In CHO or HEK-293 FLP-In cells (pcDNA5); HEK-293/aeq17 lines (pIRES-puro) were also made
T1 sequence (Q9HB89 1-426): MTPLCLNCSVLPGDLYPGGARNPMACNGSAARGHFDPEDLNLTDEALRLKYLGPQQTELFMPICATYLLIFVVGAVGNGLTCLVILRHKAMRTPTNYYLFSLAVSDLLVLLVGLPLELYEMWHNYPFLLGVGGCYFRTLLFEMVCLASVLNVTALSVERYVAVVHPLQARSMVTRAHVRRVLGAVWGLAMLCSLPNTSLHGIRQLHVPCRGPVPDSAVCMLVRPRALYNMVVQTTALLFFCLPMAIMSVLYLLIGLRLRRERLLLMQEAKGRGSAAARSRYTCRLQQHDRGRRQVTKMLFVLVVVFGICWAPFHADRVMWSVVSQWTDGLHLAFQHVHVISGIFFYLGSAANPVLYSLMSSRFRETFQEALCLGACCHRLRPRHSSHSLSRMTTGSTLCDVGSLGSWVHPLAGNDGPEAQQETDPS
From the text: (§1) Human, mouse or rat cDNAs encoding NMUR1 or NMUR2 (as described in Howard et al. Nature 406: 70-74 (2000) were subcloned in pcDNA5 (Invitrogen) and transfected into FLP-In CHO cells and HEK-293 FLP-In cells purchased from Invitrogen (Carlsbad, Calif.) using lipofectamine (Invitrogen). The Flp-In system allows integration and expression of a particular gene of interest at a specific genomic location utilizing the Flp recombinase from yeast. The transfected cells were selected by growth in medium containing 200 μg/mL hygromycin (Invitrogen). Populations were frozen at early passage numbers, and these stocks were used for further studies. Stable clones that expressed the mRNAs were identified functionally by FLIPR as well as by RT-PCR. […] Two different rodent NMUR1 cell lines were thus generated: one with the codon as predicted from the genomic databases and another cell line with an engineered methionine (ATG) as the start codon. Additionally, stable cell lines expressing the human receptors were generated in HEK-293/aeq17 cells which stably express the aequorin gene under the CMV promoter. The human NMUR2 cDNA was cloned into pcDNA3.1 and human NMUR1 was subcloned into pIRES-puro (Clontech, Mountain View, Calif.), after transfection cells were selected in media containing G418 and either hygromycin (NMUR2) or puromycin (NMUR1).
(§2) The NMU receptors signal primarily through Gαq/11 proteins; therefore calcium mobilization assays can be utilized for functional activity.
(§3) Stable cell lines expressing human and or rodent NMUR1 or human NMUR2 receptors were plated at a density of 12,000 cells per well overnight on poly-lysine coated 384-well black-walled plates. The following day, the media was removed from the plates and the cells were subsequently loaded with Fluo-3 (Molecular Probes), a calcium sensitive dye, diluted in FLIPR buffer (1× Hank's buffered saline containing 20 mM HEPES, 0.1% BSA, 2.5 mM probenecid (Sigma) and 1.6 mM TR40). All reagents are from Invitrogen unless otherwise noted. Peptide stocks were resuspended in DMSO at a stock concentration of 2 mM and diluted in FLIPR buffer on the day of the experiment to a 4 μM working stock solution.
(§4) After a 90 minute incubation at room-temperature, cell plates were loaded onto a FLIPR (Molecular Devices) to monitor cellular fluorescence (excitation=488 nm; emission=540 nm) before and after compound/peptide addition. Eight to twelve point dose responses were tested on NMUR-expressing cell lines using FLIPR with 1 μM peptide as the highest dose. The response after peptide addition was taken as the maximum fluorescence units minus the fluorescence immediately prior to stimulation for each well. EC50 values were calculated using GraphPad Prism (San Diego, Calif.) software.
(§5) In vitro responses of Neuromedin U receptor agonists (NMU1 to NMU25) in the FLIPR assay for human (Table 3), mouse (Table 4) and rat (Table 5) NMUR1 and NMUR2. EC50s are reported in nM values. Percent activity refers to the maximum response at 1 μM compared to the hNMU-25 response at the same concentration. NT=not tested.

hNMUR2 = hNMUR2 (Homo sapiens, UniProt Q9GZQ4); assay: FLIPR calcium mobilization assay, human NMUR2; set-up: expressed in transfected cells; host or cells: FLP-In CHO or HEK-293 FLP-In cells (pcDNA5); HEK-293/aeq17 lines (pcDNA3.1) were also made
Sequence of hNMUR2 (Q9GZQ4 whole entry): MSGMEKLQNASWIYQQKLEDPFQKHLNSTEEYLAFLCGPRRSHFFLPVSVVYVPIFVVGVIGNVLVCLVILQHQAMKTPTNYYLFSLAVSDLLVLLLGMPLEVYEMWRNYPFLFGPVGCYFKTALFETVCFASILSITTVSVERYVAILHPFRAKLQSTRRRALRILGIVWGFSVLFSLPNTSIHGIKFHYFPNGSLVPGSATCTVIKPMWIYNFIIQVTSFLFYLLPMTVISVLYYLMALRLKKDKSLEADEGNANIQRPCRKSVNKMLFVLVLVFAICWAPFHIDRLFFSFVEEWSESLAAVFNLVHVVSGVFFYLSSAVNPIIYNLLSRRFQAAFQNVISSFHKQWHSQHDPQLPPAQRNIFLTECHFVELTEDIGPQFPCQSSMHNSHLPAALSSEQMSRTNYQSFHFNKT
From the text: as §1, §2, §3, §4, §5

mouse NMUR2 = mouse NMUR2 (Mus musculus, UniProt Q8BZ39); assay: FLIPR calcium mobilization assay, mouse NMUR2; set-up: expressed in transfected cells; host or cells: FLP-In CHO or HEK-293 FLP-In cells (pcDNA5)
Sequence of mouse NMUR2 (Q8BZ39 whole entry): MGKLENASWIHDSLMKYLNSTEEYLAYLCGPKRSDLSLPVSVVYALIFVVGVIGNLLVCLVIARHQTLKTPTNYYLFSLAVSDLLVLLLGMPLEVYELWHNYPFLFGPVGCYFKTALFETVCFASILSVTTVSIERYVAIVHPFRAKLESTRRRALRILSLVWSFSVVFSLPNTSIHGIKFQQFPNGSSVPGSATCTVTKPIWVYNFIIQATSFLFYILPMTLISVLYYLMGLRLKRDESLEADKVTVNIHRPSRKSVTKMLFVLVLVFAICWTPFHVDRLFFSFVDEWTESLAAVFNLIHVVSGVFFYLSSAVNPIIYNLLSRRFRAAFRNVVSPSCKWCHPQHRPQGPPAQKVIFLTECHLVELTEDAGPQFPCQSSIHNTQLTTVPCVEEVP
From the text: as §1, §2, §3, §4, §5

[1] = maximum response at 1 μM compared to hNMU-25 response at same concentration, human NMUR1
[2] = maximum response at 1 μM compared to hNMU-25, human NMUR2
[3] = maximum response at 1 μM compared to hNMU-25, mouse NMUR2

Compound | % Activity (hNMUR1; functional, human R1, relative to native hNMU responses) [%] | % Activity (hNMUR1; [1]) [%] | EC50 (hNMUR2; human NMUR2) [nM] | % Activity (hNMUR2; functional, human R2, relative to native hNMU responses) [%] | % Activity (hNMUR2; [2]) [%] | EC50 (mouse NMUR2; mouse NMUR2) [nM] | IC50 (mouse NMUR2; functional data, mouse R2) [nM] | % Activity (mouse NMUR2; functional, mouse R2, relative to native hNMU responses) [%] | % Activity (mouse NMUR2; [3]) [%] | EC50 (hNMUR1; human NMUR1) [nM]
CCN1C(=O)CC(SC[C@H](NC(C)=O)C(=O)N[C@@H](Cc2ccccc2)C(=O)N[C@@H](CCCNC(=N)N)C(=O)N[C@H](C(=O)N[C@@H](CC(=O)O)C(=O)N[C@@H](CCC(=O)O)C(=O)N[C@@H](CCC(=O)O)C(=O)N[C@@H](Cc2ccccc2)C(=O)N[C@@H](CCC(N)=O)C(=O)N[C@@H](CO)C(=O)N2CCC[C@H]2C(=O)N[C@@H](Cc2ccccc2)C(=O)N[C@@H](C)C(=O)N[C@@H](CO)C(=O)N[C@@H](CCC(N)=O)C(=O)N[C@@H](CO)C(=O)N[C@@H](CCCNC(=N)N)C(=O)NCC(=O)N[C@@H](Cc2ccc(O)cc2)C(=O)N[C@@H](Cc2ccccc2)C(=O)N[C@H](C)C(=O)N[C@@H](Cc2c[nH]c3ccccc23)C(=O)N[C@@H](CCCNC(=N)N)C(=O)N2CCC[C@H]2C(=O)N[C@@H](CCCNC(=N)N)C(=O)N[C@@H](CC(N)=O)C(N)=O)C(C)C)C1=O (stereo partly shown) [NMU13] (Ac-C(Succinimide(1-Et,3-yl))FRVDEEFQSPFASQSRGYF[dA]WRPRN-NH2) | 91 | 100 | > 1000 | 0 | 0.0 | > 1000 | > 1000 | 27 | 0.0 | –
CCN1C(=O)CC(SC[C@H](NC(C)=O)C(=O)N[C@@H](CSC2CC(=O)N(CC)C2=O)C(=O)N[C@@H](Cc2ccccc2)C(=O)N[C@@H](CCCNC(=N)N)C(=O)N[C@H](C(=O)N[C@@H](CC(=O)O)C(=O)N[C@@H](CCC(=O)O)C(=O)N[C@@H](CCC(=O)O)C(=O)N[C@@H](Cc2ccccc2)C(=O)N[C@@H](CCC(N)=O)C(=O)N[C@@H](CO)C(=O)N2CCC[C@H]2C(=O)N[C@@H](Cc2ccccc2)C(=O)N[C@@H](C)C(=O)N[C@@H](CO)C(=O)N[C@@H](CCC(N)=O)C(=O)N[C@@H](CO)C(=O)N[C@@H](CCCNC(=N)N)C(=O)NCC(=O)N[C@@H](Cc2ccc(O)cc2)C(=O)N[C@@H](Cc2ccccc2)C(=O)N[C@@H](CC(C)C)C(=O)N[C@@H](Cc2ccccc2)C(=O)N[C@@H](CCCNC(=N)N)C(=O)N2CCC[C@H]2C(=O)N[C@@H](CCCNC(=N)N)C(=O)N[C@@H](CC(N)=O)C(N)=O)C(C)C)C1=O (stereo partly shown) [NMU22] (Ac-C(Succinimide(1-Et,3-yl))C(Succinimide(1-Et,3-yl))FRVDEEFQSPFASQSRGYFLFRPRN-NH2) | – | 95.6 | – | – | 105 | – | – | – | 100 | –
Ac-C2FQSPFASQSRGYFLFRPRN-CONH2 ({Ac-C(PEG 40 kDa)}-FQSPFASQSRGYFLFRPRN-NH2; not fully specified; printed as Ac-C2FQSPFASQSRGYFLFRPRN-CONH2) [NMU20, C2 = Cys(PEG)240 kDa] | – | – | 13 | – | – | 14.8 | – | – | – | 16.4
H-FRVDEEFQSPFASQSRPYFLFRPRN-NH2 [NMU4] | – | 97.0 | 2.6 | – | 100 | 1.2 | – | – | 100 | –
CCN1C(=O)CC(SC[C@H](NC(C)=O)C(=O)NCCCOCCOCCOCCCNC(=O)CCC(=O)N[C@@H](Cc2ccccc2)C(=O)N[C@@H](CC(C)C)C(=O)N[C@@H](Cc2ccccc2)C(=O)N[C@@H](CCCNC(=N)N)C(=O)N2CCC[C@H]2C(=O)N[C@@H](CCCNC(=N)N)C(=O)N[C@@H](CC(N)=O)C(N)=O)C1=O (stereo partly shown) [NMU15, Ac-C1-Ttds-FLFRPRN-CONH2] ({X2-Suc}-FLFRPRN-NH2) | – | 91.5 | – | – | 101 | – | – | – | 100 | –
CCN1C(=O)CC(SC[C@H](NC(C)=O)C(=O)N[C@@H](Cc2ccccc2)C(=O)N[C@@H](CCC(N)=O)C(=O)N[C@@H](CO)C(=O)N2CCC[C@H]2C(=O)N[C@@H](Cc2ccccc2)C(=O)N[C@@H](C)C(=O)N[C@@H](CO)C(=O)N[C@@H](CCC(N)=O)C(=O)N[C@@H](CO)C(=O)N[C@@H](CCCNC(=N)N)C(=O)NCC(=O)N[C@@H](Cc2ccc(O)cc2)C(=O)N[C@@H](Cc2ccccc2)C(=O)N[C@@H](CC(C)C)C(=O)N[C@@H](Cc2ccccc2)C(=O)N[C@@H](CCCNC(=N)N)C(=O)N2CCC[C@H]2C(=O)N[C@@H](CCCNC(=N)N)C(=O)N[C@@H](CC(N)=O)C(N)=O)C1=O (stereo partly shown) [NMU19] (Ac-C(Succinimide(1-Et,3-yl))FQSPFASQSRGYFLFRPRN-NH2) | – | 95.9 | – | – | 105 | – | – | – | 100 | –
Ac-FRVDEEFQSPFASQSRPYFLFRPRN-NH2 [NMU5] | – | 98.1 | – | – | 98.1 | 1 | – | – | 100 | –
Ac-FRVDEEFQSPFASQSRGYFLFRPRN-NH2 [NMU2] | – | 99.0 | 2.6 | – | 97.4 | 1.2 | – | – | 100 | 5.5
GYFLFRPRN-NH2 [NMU3] | – | 98.9 | – | – | 100 | – | – | – | 100 | –
CCN1C(=O)CC(SC[C@H](NC(C)=O)C(=O)NCC(=O)N[C@@H](Cc2ccc(O)cc2)C(=O)N[C@@H](Cc2ccccc2)C(=O)N[C@@H](CC(C)C)C(=O)N[C@@H](Cc2ccccc2)C(=O)N[C@@H](CCCNC(=N)N)C(=O)N2CCC[C@H]2C(=O)N[C@@H](CCCNC(=N)N)C(=O)N[C@@H](CC(N)=O)C(N)=O)C1=O (stereo partly shown) [NMU6] (Ac-C(Succinimide(1-Et,3-yl))GYFLFRPRN-NH2) | – | 96.7 | 1.5 | – | 100 | – | – | – | 100 | –
CC(=O)N[C@@H](CSCC(=O)O[C@H]1CC[C@@]2(C)C(=CC[C@H]3[C@@H]4CC[C@H]([C@H](C)CCCC(C)C)[C@@]4(C)CC[C@@H]32)C1)C(=O)NCC(=O)N[C@@H](Cc1ccc(O)cc1)C(=O)N[C@@H](Cc1ccccc1)C(=O)N[C@@H](CC(C)C)C(=O)N[C@@H](Cc1ccccc1)C(=O)N[C@@H](CCCNC(=N)N)C(=O)N1CCC[C@H]1C(=O)N[C@@H](CCCNC(=N)N)C(=O)N[C@@H](CC(N)=O)C(N)=O [NMU11] (Ac-C(X1)GYFLFRPRN-NH2) | – | 20.6 | – | – | 37.3 | – | – | – | 70.5 | –
